Series [1] has as its target T1, Ecdysone receptor (Spodoptera littoralis) (UniProt E3UJZ5).
T1 sequence (whole entry): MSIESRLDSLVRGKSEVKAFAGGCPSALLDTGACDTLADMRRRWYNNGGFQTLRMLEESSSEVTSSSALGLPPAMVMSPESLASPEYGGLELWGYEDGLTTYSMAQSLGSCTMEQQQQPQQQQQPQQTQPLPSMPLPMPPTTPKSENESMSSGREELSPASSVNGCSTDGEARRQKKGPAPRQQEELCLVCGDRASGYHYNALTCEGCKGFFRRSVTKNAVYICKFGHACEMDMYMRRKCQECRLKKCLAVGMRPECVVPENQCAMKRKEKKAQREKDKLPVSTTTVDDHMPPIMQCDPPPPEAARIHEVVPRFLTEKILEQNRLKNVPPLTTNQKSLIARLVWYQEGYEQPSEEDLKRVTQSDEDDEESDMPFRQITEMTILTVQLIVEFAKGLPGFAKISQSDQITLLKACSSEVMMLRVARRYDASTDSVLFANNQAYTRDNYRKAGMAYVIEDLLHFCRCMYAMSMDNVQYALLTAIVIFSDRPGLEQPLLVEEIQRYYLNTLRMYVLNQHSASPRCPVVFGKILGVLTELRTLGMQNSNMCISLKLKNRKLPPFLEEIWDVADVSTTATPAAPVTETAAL
Put plainly: Agonist activity at ecdysone receptor in Spodoptera littoralis Sl2 cells at 200 uM after 24 hr by luciferase reporter gene assay. The series is classed as cell-based. A general note: In a reporter assay the amount or activity of a reporter protein is the signal.

The target of series [2] is T2, Ecdysone receptor (Bombyx mori) (UniProt P49881).
T2 sequence (whole entry): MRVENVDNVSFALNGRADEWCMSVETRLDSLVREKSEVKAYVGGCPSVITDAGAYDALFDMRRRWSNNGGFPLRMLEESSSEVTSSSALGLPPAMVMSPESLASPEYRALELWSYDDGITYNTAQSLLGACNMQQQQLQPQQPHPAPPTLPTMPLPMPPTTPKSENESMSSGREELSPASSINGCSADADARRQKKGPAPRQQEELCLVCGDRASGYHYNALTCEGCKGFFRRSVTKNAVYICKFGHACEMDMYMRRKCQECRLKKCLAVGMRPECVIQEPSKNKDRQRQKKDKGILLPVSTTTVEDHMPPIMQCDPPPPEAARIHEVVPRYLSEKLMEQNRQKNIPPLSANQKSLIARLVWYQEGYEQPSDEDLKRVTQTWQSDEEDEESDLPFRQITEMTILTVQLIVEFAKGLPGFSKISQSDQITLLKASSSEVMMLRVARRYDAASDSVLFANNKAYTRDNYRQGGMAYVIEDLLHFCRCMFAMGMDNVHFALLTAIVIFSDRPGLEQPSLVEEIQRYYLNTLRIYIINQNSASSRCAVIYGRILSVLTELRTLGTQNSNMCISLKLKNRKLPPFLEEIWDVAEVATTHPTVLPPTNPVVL
Put plainly: Agonist activity at ecdysone receptor in Bombyx mori Bm5 cells at 200 uM after 24 hr by luciferase reporter gene assay. It counts as cell-based.

The nature of series [3]: Selectivity ratio of EC50 for ecdysone receptor in Bombyx mori Bm5 cells to EC50 for ecdysone receptor in Spodoptera littoralis Sl2 cells. The series is classed as cell-based.
In series [4] the test system is Spodoptera littoralis. Put plainly: Cytotoxicity against Spodoptera littoralis Sl2 cells assessed as cell viability after 24 hr by MTT assay. The note with it: read-out: pLC50 (converted).
In series [5] the target is T3, Ecdysone receptor (Spodoptera littoralis, UniProt E3UJZ5).
T3 sequence (E3UJZ5 whole entry): T1 sequence (whole entry)
Put plainly: Antagonist activity at ecdysone receptor in Spodoptera littoralis Sl2 cells assessed as tebufenozide-induced effect treated 24 hr before tebufenozide challenge measured after 24 hr by luciferase reporter gene assay. The series is classed as cell-based.

The target of series [6] is T4, Ecdysone receptor (Bombyx mori, UniProt P49881).
T4 sequence (P49881 whole entry): T2 sequence (whole entry)
Put plainly: Agonist activity at ecdysone receptor in Bombyx mori Bm5 cells after 24 hr by luciferase reporter gene assay. The series is classed as cell-based. The note with it: read-out: pEC50 (converted).

The nature of series [7]: Cytotoxicity against Bombyx mori Bm5 cells assessed as cell viability after 24 hr by MTT assay. It counts as cell-based. The note with it: read-out: pLC50 (converted). On the technique in general: Tetrazolium assays rely on reduction of a dye to a coloured formazan, in cell work by metabolically active cells.
Series [8] deals with T1, Ecdysone receptor (Spodoptera littoralis). Description: Agonist activity at ecdysone receptor in Spodoptera littoralis Sl2 cells after 24 hr by luciferase reporter gene assay relative to tebufenozide. The series is classed as cell-based.
Series [9] addresses T3, Ecdysone receptor. Description: Agonist activity at ecdysone receptor in Spodoptera littoralis Sl2 cells after 24 hr by luciferase reporter gene assay. The note with it: read-out: pEC50 (converted). The series is classed as cell-based.
Series [10] concerns the target T4, Ecdysone receptor. Description: Antagonist activity at ecdysone receptor in Bombyx mori Bm5 cells assessed as tebufenozide-induced effect treated 24 hr before tebufenozide challenge measured after 24 hr by luciferase reporter gene assay. It counts as cell-based.
Series [11] can be described thus: Ratio of IC50 for ecdysone receptor in Bombyx mori Bm5 cells to LC50 for Bombyx mori Bm5 cells.
The target of series [12] is T2, Ecdysone receptor (Bombyx mori). Description: Agonist activity at ecdysone receptor in Bombyx mori Bm5 cells after 24 hr by luciferase reporter gene assay relative to tebufenozide. It counts as cell-based.
Series [13] in a line: Ratio of IC50 for ecdysone receptor in Spodoptera littoralis Sl2 cells to LC50 for Spodoptera littoralis Sl2 cells.

The values that follow come from ChEMBL document CHEMBL3046747, “Assessment of species specificity of moulting accelerating compounds in Lepidoptera: comparison of activity between Bombyx mori and Spodoptera littoralis by in vitro reporter and in vivo toxicity assays” (Pest Manag Sci, 2010).

The source made the active and inactive calls. The calls are words filed in the database; no cut-off is given here.

One may read the IC50 as the concentration at which inhibition is half-maximal.

Take `CCOc1ccccc1C(=O)N(NC(=O)c1ccccc1)C(C)(C)C`: the outcome in series [1] and in series [2] was inactive.

As for `CCOc1ccccc1C(=O)N(NC(=O)c1ccc([N+](=O)[O-])cc1)C(C)(C)C`, the result in series [1] and in series [2] was inactive.

Consider `CCc1ccc(C(=O)NC(C(=O)c2cc(C)cc(C)c2)C(C)(C)C)cc1` (stereo not given), for which, in series [3], the Ratio EC50 amounted to 0.76. Also, the CC50 at 24 h in [4] was more than 501 µM; in [7], 38.9 µM. The IC50 was 24 µM in series [5] and 28.2 µM in [10]. Also, the EC50 is 35.5 µM in series [6] and 46.8 µM in series [9]. Further, the results for the Efficacy in [8] and in [12] were 17% and 11%, respectively. Further, the figures for the Ratio in series [11] and in series [13] were 0.72 and less than 0.05, respectively.
